Measured values: the NIST ThermoML archive (doi:10.1016/j.fluid.2015.07.049)
Numbers after ± are expanded uncertainties.

Conditions: 313.15 K; Liquid

Going from CCCCCO [pentan-1-ol] to CCCCCCC [heptane], the “vapor or sublimation pressure” value rises from 0.898 ± 0.018 kPa to 12.31 ± 0.055 kPa.

With CC(C)CC(C)(C)C [2,2,4-trimethylpentane] the “vapor or sublimation pressure” value was 12.94 ± 0.057 kPa.
